Columns and labels:
[1] = in vivo; cited from earlier work
[2] = Minocycline forced degradation (acid, base, H2O2, light) by HPLC; format: physicochemical
Text: Measuring the drug molecule's stability is essential as it directly impacts the formulation strategy when designing the drug-loaded nanoparticle.

[3] = 35 day observation
Experimental: Before treatment, body weight was determined for all the animals. During the course of observation period of 35 days, the animals were followed up twice daily for symptoms of any adverse effect and were physically examined for the sign of morbidity throughout the study period.
On day 0, 15 and 35, all the animals were weighed, and their weights were recorded.

[4] = In vivo toxicity: gross observable behavioral effects (Irwin); design: species or system rat; settings: 35 days
[5] = rat models; cited from earlier work

Structure (SMILES)	time to disappearance from the cochlea [1]	recovery at 1 h, 100 μg/mL ([2]; 1 M HCl solution, HCl (1 M, 1 h RT))	recovery at 1 h, 100 μg/mL ([2]; 1 M NaOH solution, NaOH (1 M, 1 h RT))	recovery at 24 h, 100 μg/mL ([2]; UV Light (24 h light exposure))	body weight versus saline treated control group [3]	gross observable behavioral parameters (alertness, visual placing, passivity, spontaneous motor activity, touch response) [4]	half-life [5]
C[C@H]1C[C@H]2[C@@H]3CCC4=CC(=O)C=C[C@]4(C)[C@@]3(F)[C@@H](O)C[C@]2(C)[C@@]1(O)C(=O)COP(=O)(O)O [free betamethasone phosphate, betamethasone phosphate]	≤ 12 h	–	–	–	–	–	–
CN(C)c1ccc(O)c2c1C[C@H]1C[C@H]3[C@H](N(C)C)C(O)=C(C(N)=O)C(=O)[C@@]3(O)C(O)=C1C2=O [minocycline, Minocycline]	–	88.9%	74%	98.54 ± 0.71%	no reduction in body weight	mild changes in a few behavioral parameters	2 to 3 h

Reference: patent publication US12329765B2, “Targeted nanoparticle for the treatment of traumatic brain injury and other CNS diseases” (priority 2021, dated 2025)
